Tests used:
[1] = Solubility determination in water (Chinese Pharmacopoeia 2020 solubility test method); format: physicochemical; details: 25° C.±2° C., dissolution observed within 30 minutes
Description: The determination is based on the solubility test method in General Example 15 of Part IV in “Chinese Pharmacopoeia (2020 Edition)”: the test product was ground into fine powders, and water at about 25° C. is added in a certain water bath at 25° C.±2° C., and shaken vigorously for 30 seconds every 5 minutes, to observe the dissolution within 30 minutes. If there are no visible solute particles, it is regarded as complete dissolution.

[2] = Pharmacokinetic study: metabolism of prodrug and conversion to levosimendan in plasma after in vivo administration; details: for ranking of metabolic conversion rates among the 13 prodrug molecules: in plasma within 10 minutes
Description: FIGS. 4-6 are the change profile of the content of compound TCX1001-031 itself in plasma after administration in the pharmacokinetic study, the change profile of the content of released levosimendan, and the pharmacokinetic metabolic conversion rate, respectively.
The conversion rates of these compounds to levosimendan in plasma within 10 minutes are approximately 30-45%.

[3] = general statement, no test described; cited from earlier work

Row | Compound | solubility in water [1] | also measured
1 | C[C@@H]1CC(=O)N(COC(=O)CN(C)C)N=C1c1ccc(NN=C(C#N)C#N)cc1 [TCX-1001-030] | [drawing 6] Rp = N,N-dimethylaminomethyl Chemical name: (R)-(3-((4-(2- (dicyanomethylene)hydrazino)phenyl)- 4-methyl-6-oxo-5,6-dihydropyridazin- 1(4H)-yl)m ethyl N,N- dimethylglycinate (TCX-1001-030) This product is slightly soluble in water | ranking of metabolic conversion rates among the 13 prodrug molecules [2]: highest
2 | C[C@@H]1CC(=O)N(COC(=O)CN)N=C1c1ccc(NN=C(C#N)C#N)cc1 [TCX-1001-032, (R)-(3-((4-(2-(dicyanomethylene)hydrazino)phenyl)-4-methyl-6-oxo-5,6-dihydropyridazin-1(4H)-yl)methyl glycinate] | [drawing 9] Rp = aminomethyl Chemical name: (R)-(3-((4-(2- (dicyanomethylene)hydrazino)phenyl)- 4-methyl-6-oxo-5,6-dihydropyridazin- 1(4H)-yl)m ethyl glycinate (TCX-1001-032) This product is slightly soluble in water | 
3 | C[C@@H]1CC(=O)N(COC(=O)N2CCC(N3CCCCC3)CC2)N=C1c1ccc(NN=C(C#N)C#N)cc1 [TCX-1001-037] | [drawing 8] Rp = 4-(piperidin-1-yl)-piperidin-1-yl Chemical name: (R)-(3-((4-(2- (dicyanomethylene)hydrazino)phenyl)- 4-methyl-6-oxo-5,6-dihydropyridazin- 1(4H)-yl)methyl 4-(piperidin-1-yl)piperidin-1-ylformate (TCX-1001-037) This product is sparingly soluble in water | 
4 | C[C@@H]1CC(=O)N(COC(=O)CC(=O)O)N=C1c1ccc(NN=C(C#N)C#N)cc1 [TCX-1001-041, (R)-(3-((4-(2-(dicyanomethylene)hydrazino)phenyl)-4-methyl-6-oxo-5,6-dihydropyridazin-1(4H)-yl)methyl 2-carboxyl acetate] | [drawing 12] Rp = carboxylmethyl Chemical name: (R)-(3-((4-(2- (dicyanomethylene)hydrazino)phenyl)- 4-methyl-6-oxo-5,6-dihydropyridazin- 1(4H)-yl)methyl 2-carboxylacetate (TCX-1001-041) This product is slightly soluble in water | 
5 | C[C@@H]1CC(=O)N(COC(=O)COP(=O)(O)O)N=C1c1ccc(NN=C(C#N)C#N)cc1 [TCX-1001-040, (R)-(3-((4-(2-(dicyanomethylene)hydrazino)phenyl)-4-methyl-6-oxo-5,6-dihydropyridazin-1(4H)-yl)methyl phosphoryloxyacetate] | [drawing 15] Rp = phosphoryloxymethyl Chemical name: (R)-(3-((4-(2- (dicyanomethylene)hydrazino)phenyl)- 4-methyl-6-oxo-5,6-dihydropyridazin- 1(4H)-yl)methyl phosphoryloxyacetate (TCX-1001-040) This product is extremely soluble in water | 
6 | C[C@@H]1CC(=O)N(COC(=O)OCC(=O)O)N=C1c1ccc(NN=C(C#N)C#N)cc1 [TCX-1001-035, (R)-(3-((4-(2-(dicyanomethylene)hydrazino)phenyl)-4-methyl-6-oxo-5,6-dihydropyridazin-1(4H)-yl)methyl carboxylmethyloxyformate] | [drawing 14] Rp = carboxylmethoxy Chemical name: (R)-(3-((4-(2- (dicyanomethylene)hydrazino)phenyl)- 4-methyl-6-oxo-5,6-dihydropyridazin- 1(4H)-yl)methyl carboxylmethyloxyformate (TCX-1001-035) This product is slightly soluble in water | 
7 | C[C@@H]1CC(=O)N(COC(=O)c2ccc(CN3CCOCC3)cc2)N=C1c1ccc(NN=C(C#N)C#N)cc1 [TCX-1001-031] | [drawing 4] Rp = 4-(morpholin-1-ylmethyl)phenyl Chemical name: (R)-(3-((4-(2- (dicyanomethylene)hydrazino)phenyl)- 4-methyl-6-oxo-5,6-dihydropyridazin- 1(4H)-yl)methyl 4-(morpholin-1-ylmethyl)benzoate (TCX-1001-031) This product is sparingly soluble in water | ranking of metabolic conversion rates among the 13 prodrug molecules [2]: highest; time to complete metabolism of the prodrug (content drops to 0) ([2]; plasma, after in vivo administration): ≤ 1 min
8 | C[C@@H]1CC(=O)N(COC(=O)c2cccnc2)N=C1c1ccc(NN=C(C#N)C#N)cc1 [TCX-1001-029, (R)-(3-((4-(2-(dicyanomethylene)hydrazino)phenyl)-4-methyl-6-oxo-5,6-dihydropyridazin-1(4H)-yl)methyl nicotinate] | [drawing 7] Rp = pyridin-3-yl Chemical name: (R)-(3-((4-(2- (dicyanomethylene)hydrazino)phenyl)- 4-methyl-6-oxo-5,6-dihydropyridazin- 1(4H)-yl)methyl nicotinate (TCX-1001-029) This product is extremely slightly soluble in water | ranking of metabolic conversion rates among the 13 prodrug molecules [2]: highest
9 | C[C@@H]1CC(=O)N(COC(=O)CN2CCCC2)N=C1c1ccc(NN=C(C#N)C#N)cc1 [TCX-1001-039] | [drawing 11] Rp = pyrrolidin-1-ylmethyl Chemical name: (R)-(3-((4-(2- (dicyanomethylene)hydrazino)phenyl)- 4-methyl-6-oxo-5,6-dihydropyridazin- 1(4H)-yl)methyl 2-pyrrolidin-1-yl- acetate (TCX-1001-03 9) This product is slightly soluble in water | 
10 | C[C@@H]1CC(=O)N(COC(=O)c2ccc(CN3CCN(C)CC3)cc2)N=C1c1ccc(NN=C(C#N)C#N)cc1 [TCX-1001-033] | [drawing 5] Rp = 4-(4-methylpiperazin-1-ylmethyl)phenyl Chemical name: (R)-(3-((4-(2- (dicyanomethylene)hydrazino)phenyl)- 4-methyl-6-oxo-5,6-dihydropyridazin- 1(4H)-yl)methyl 4-((4- methylpiperazin-1-yl)methyl)benzoate (TCX-1001-033) This product is sparingly soluble in water | ranking of metabolic conversion rates among the 13 prodrug molecules [2]: highest
11 | C[C@@H]1CC(=O)N(COC(=O)CC(=O)NCc2ccncc2)N=C1c1ccc(NN=C(C#N)C#N)cc1 [TCX-1001-036] | [drawing 10] Rp = pyridin-4-ylmethylaminoformylmethyl Chemical name: (R)-(3-((4-(2- (dicyanomethylene)hydrazino)phenyl)- 4-methyl-6-oxo-5,6-dihydropyridazin- 1(4H)-yl)methyl 3-oxo-3-((pyridin-4-ylmethyl)amino)propionate (TCX-1001-036) This product is extremely slightly soluble in water | 
12 | C[C@@H]1CC(=O)N(COC(=O)COS(=O)(=O)O)N=C1c1ccc(NN=C(C#N)C#N)cc1 [TCX-1001-038, (R)-(3-((4-(2-(dicyanomethylene)hydrazino)phenyl)-4-methyl-6-oxo-5,6-dihydropyridazin-1(4H)-yl)methyl sulfonyloxyacetate] | [drawing 16] Rp = sulfonyloxymethyl Chemical name: (R)-(3-((4-(2- (dicyanomethylene)hydrazino)phenyl)- 4-methyl-6-oxo-5,6-dihydropyridazin- 1(4H)-yl)methyl sulfonyloxyacetate (TCX-1001-038) This product is extremely soluble in water | 
13 | C[C@@H]1CC(=O)N(COC(=O)CCC(=O)O)N=C1c1ccc(NN=C(C#N)C#N)cc1 [TCX-1001-034] | [drawing 13] Rp = carboxyl ethyl Chemical name: (R)-(3-((4-(2- (dicyanomethylene)hydrazino)phenyl)- 4-methyl-6-oxo-5,6-dihydropyridazin- 1(4H)-yl)methyl 3-carboxylpropionate (TCX-1001-034) This product is slightly soluble in water | 
14 | C[C@@H]1CC(=O)NN=C1c1ccc(NN=C(C#N)C#N)cc1 [Levosimendan, (R)-[[4-(1,4,5,6-tetrahydro-4-methyl-6-oxo-pyridazin-3-yl)phenyl]-hydrazono]-malononitrile] |  | solubility of levosimendan in most organic solvents [3]: insoluble or extremely poorly soluble; solubility of levosimendan in water [3]: insoluble

— patent US11591299B1, “Prodrug compound of levosimendan, preparation method and use thereof” (Beijing Chenguang Tongchuang Pharmaceutical Research …, priority 2022, dated 2023)
